Structures can show the parent of a compound that is named as a salt.
How the values were obtained:
Assay type in all cases: in vivo
Plamopara viticola = experiment: Grapevine leaf disc test: disease suppression; details: alone, 7 days at 21°C
Protocol: Leaf discs of grapevine (cv. Cabernet Sauvignon) 23mm in diameter, were supported on water agar in petri dishes, and sprayed with various aqueous test preparations. After the spray had dried, the discs were inoculated with Plamopara viticola. The dishes were closed and incubated for 7 days at 21°C. At the end of this period, the percentage area of each disc covered with sporulating downy mildew was estimated, and compared with that on inoculated, untreated control discs.
In this Table, the theorectical degree of disease suppression, assuming that the two fungicides act independently (i.e. additively) is calculated using the formula: [formula] where x and y are the activities of the two components used separately. If the actual degree of disease suppression (as measured in the test) is greater than the calculated value, then the two fungicides have interacted synergistically.

[1] = tested on: grapevines (cv Sauvignon); experiment: Field spray test on adult fruit-bearing grapevines: phytotoxicity rating; details: mean rating 0-5
Protocol: (§1) The fungicidal and phytotoxic effects of the sodium salt of N-hydroxy-N-formylalanine in admixture with N-(trichlormethyl- thio)phthalimide were compared to those of the N-hydroxy-N-formylalanine salt alone using the following procedure. The test solutions were sprayed onto adult, fruit-bearing grapevines (cv Sauvignon) at 18 day intervals during June, July and August. Four replicate plots were treated. Controls were left untreated.
(§2) The test solutions contained the active ingredient(s), distilled water and 100ppm of Tween 20 surfactant (Trade mark).
(§3) Assessments of the disease level and phytotoxicity were made 19 days after the 1st treatment, and then after a further 4 weeks (11 days after the 3rd treatment) .
Phytotoxicity is expressed as a mean rating compared with the control according to the criteria, • 0 = absolutely no phytotoxicity • 1 = doubtful occurence of phytotoxicity • 2 = distinct, but very slight phytotoxicity • 3,4 = slight to moderate phytotoxicity • 5 = phytotoxicity of an unacceptable degree.

Plasmopara viticola = experiment: Field spray test on adult fruit-bearing grapevines: disease level; details: percentage of disease level on control vines
Protocol: as §1, §2
Seven days after the first spray application and 13 days after the third spray application the vines were innoculated with a spore suspension containing Plasmopara viticola.
as §3
The extent of disease control in the test is expressed as a percentage of the disease level occuring on the control vines.

[2] = 250 ppm sodium salt alone, 11 days after 3rd application
[3] = 250 ppm sodium salt alone, 19 days after 1st application
[4] = 500 ppm sodium salt alone, 11 days after 3rd application
[5] = 500 ppm sodium salt alone, 19 days after 1st application

## O=C1c2ccccc2C(=O)N1SC(Cl)(Cl)Cl [N-(trichloromethylthio) phthalimide, N-(trichloromethylthio)phthalimide, reference compound]
Plamopara viticola; 1 ppm in spray
  Disease Suppression (% of control) Actual: -16.2 % of control
Plamopara viticola; 5 ppm in spray
  Disease Suppression (% of control) Actual: -2.7 % of control
Plamopara viticola; 10 ppm in spray
  Disease Suppression (% of control) Actual: 82.4 % of control

## CC(C(=O)O)N(O)C=O (centres unmarked) [sodium salt of N-hydroxy-N-formylalanine]
[1]; [2]
  PHYTOTOXICITY: 0.8
[1]; [3]
  PHYTOTOXICITY: 0.5
[1]; [4]
  PHYTOTOXICITY: 1.5
[1]; [5]
  PHYTOTOXICITY: 2.0
Plamopara viticola; 7.5 ppm in spray
  Disease Suppression (% of control) Actual: -8.1 % of control
Plamopara viticola; 15.0 ppm in spray
  Disease Suppression (% of control) Actual: -2.7 % of control
Plamopara viticola; 30.0 ppm in spray
  Disease Suppression (% of control) Actual: 37.8 % of control
Plasmopara viticola; [2]
  DISEASE: 26.8%
Plasmopara viticola; [3]
  DISEASE: 34.7%
Plasmopara viticola; [4]
  DISEASE: 14.4%
Plasmopara viticola; [5]
  DISEASE: 17.6%
